According to patent US8178506B2, “Oligomeric compounds and compositions for use in modulation of small non-coding RNAs” (Regulus Therapeutics Inc., priority 2003, dated 2012):
In the oligonucleotide strings, read from the 5' end, every base follows the letter of its sugar. An asterisk marks phosphorothioate; unmarked linkages are phosphodiester. Other units and linkages are bracketed, terminal groups are in braces. A string of capitals states the bases alone. e = 2'-O-(2-methoxyethyl) (MOE); [5mC] = 5-methylcytosine

Experiments:
Format in all cases: cell-based, human
PEPCK-c = PEPCK-c mRNA expression in HepG2 cells; conditions: for PEPCKc mRNA: HepG2 cells, Experiment 1, basal (no insulin), four hours, UTC = 100; for PEPCKc mRNA expression: Experiment 2, insulin treated: HepG2 cells transfected with oligomeric compound, 1 nM insulin for four hours, UTC + 1 nM insulin = 100
Glut4 = Glut4 mRNA expression in adipocytes (real-time PCR); conditions: differentiating adipocytes transfected with oligomeric compound; Table 75
PPARγ = PPARγ mRNA expression in adipocytes (real-time PCR); conditions: differentiating adipocytes transfected with oligomeric compound; Table 75
HSL = HSL mRNA expression in adipocytes (real-time PCR); conditions: differentiating adipocytes transfected with oligomeric compound; Table 75
aP2 = aP2 mRNA expression in adipocytes (real-time PCR); conditions: differentiating adipocytes transfected with oligomeric compound; Table 75

With “327873 (antisense e[5mC]*eT*eA*e[5mC]*e[5mC]*eA*eT*eA*eG*eG*eG*eT*eA*eA*eA*eA*e[5mC]*e[5mC]*eA*e[5mC]*eT) [compound 327873]” the “PEPCKc mRNA” value (PEPCK-c) was 72, the “GLUT4 mRNA” value (Glut4) was 106 percentage of untreated control (UTC) and the “PPAR gamma mRNA” value (PPARγ) was 104 percentage of untreated control (UTC). The “HSL mRNA” value (HSL) was 116 percentage of untreated control (UTC) and the “aP2 mRNA” value (aP2) was 113 percentage of untreated control (UTC).

For “327935 (antisense e[5mC]*eT*eA*e[5mC]*e[5mC]*eT*eG*e[5mC]*eA*e[5mC]*eT*eA*eT*eA*eA*eG*e[5mC]*eA*e[5mC]*eT*eT*eT*eA) [compound 327935]”, the “GLUT4 mRNA” value (Glut4) was 47 percentage of untreated control (UTC), the “PPAR gamma mRNA” value (PPARγ) was 67 percentage of untreated control (UTC) and the “HSL mRNA” value (HSL) was 61 percentage of untreated control (UTC). For the same substance, the “aP2 mRNA” value (aP2) was 60 percentage of untreated control (UTC).

With “327936 (antisense eA*e[5mC]*eA*eG*e[5mC]*eT*eG*eG*eT*eT*eG*eA*eA*eG*eG*eG*eG*eA*e[5mC]*e[5mC]*eA*eA) [compound 327936]” the “GLUT4 mRNA” value (Glut4) was 6 percentage of untreated control (UTC), the “PPAR gamma mRNA” value (PPARγ) was 47 percentage of untreated control (UTC) and the “HSL mRNA” value (HSL) was 40 percentage of untreated control (UTC). For the same substance, the “aP2 mRNA” value (aP2) was 40 percentage of untreated control (UTC).

In the case of “327940 (antisense eG*eA*eA*e[5mC]*eA*eG*eG*eT*eA*eG*eT*e[5mC]*eT*eG*eA*eA*e[5mC]*eA*e[5mC]*eT*eG*eG*eG) [compound 327940]”, the “GLUT4 mRNA” value (Glut4) is reported as 43 percentage of untreated control (UTC), the “PPAR gamma mRNA” value (PPARγ) is reported as 64 percentage of untreated control (UTC) and the “HSL mRNA” value (HSL) is reported as 67 percentage of untreated control (UTC). For the same substance, the “aP2 mRNA” value (aP2) was 62 percentage of untreated control (UTC).

For “327944 (antisense eA*eA*eA*eG*eT*eG*eT*e[5mC]*eA*eG*eA*eT*eA*e[5mC]*eG*eG*eT*eG*eT*eG*eG) [compound 327944]”, the “GLUT4 mRNA” value (Glut4) was 28 percentage of untreated control (UTC), the “PPAR gamma mRNA” value (PPARγ) was 64 percentage of untreated control (UTC) and the “HSL mRNA” value (HSL) was 55 percentage of untreated control (UTC). For the same substance, the “aP2 mRNA” value (aP2) was 71 percentage of untreated control (UTC).

With “327945 (antisense e[5mC]*eT*eG*eT*eT*e[5mC]*e[5mC]*eT*eG*e[5mC]*eT*eG*eA*eA*e[5mC]*eT*eG*eA*eG*e[5mC]*e[5mC]*eA) [compound 327945]” the “GLUT4 mRNA” value (Glut4) was 26 percentage of untreated control (UTC), the “PPAR gamma mRNA” value (PPARγ) was 51 percentage of untreated control (UTC) and the “HSL mRNA” value (HSL) was 41 percentage of untreated control (UTC). The “aP2 mRNA” value (aP2) was 43 percentage of untreated control (UTC).

“327946 (antisense eA*eG*eG*e[5mC]*eG*eA*eA*eG*eG*eA*eT*eG*eA*e[5mC]*eA*eA*eA*eG*eG*eG*eA*eA) [compound 327946]” was tested, and the “PEPCKc mRNA expression” value (PEPCK-c) was 99, the “PEPCKc mRNA” value (PEPCK-c) was 90 and the “GLUT4 mRNA” value (Glut4) was 68 percentage of untreated control (UTC). For the same substance, the “PPAR gamma mRNA” value (PPARγ) was 81 percentage of untreated control (UTC), the “HSL mRNA” value (HSL) was 76 percentage of untreated control (UTC) and the “aP2 mRNA” value (aP2) was 73 percentage of untreated control (UTC).

“327949 (antisense e[5mC]*eA*e[5mC]*eA*eA*eA*eT*eT*e[5mC]*eG*eG*eA*eT*e[5mC]*eT*eA*e[5mC]*eA*eG*eG*eG*eT*eA) [compound 327949]” was tested, and the “PEPCKc mRNA expression” value (PEPCK-c) was 101, the “PEPCKc mRNA” value (PEPCK-c) was 81 and the “GLUT4 mRNA” value (Glut4) was 20 percentage of untreated control (UTC). For the same substance, the “PPAR gamma mRNA” value (PPARγ) was 54 percentage of untreated control (UTC), the “HSL mRNA” value (HSL) was 49 percentage of untreated control (UTC) and the “aP2 mRNA” value (aP2) was 52 percentage of untreated control (UTC).

In the case of “327950 (antisense eT*e[5mC]*eA*eG*eT*eT*eT*eT*eG*e[5mC]*eA*eT*eA*eG*eA*eT*eT*eT*eG*e[5mC]*eA*e[5mC]*eA) [compound 327950]”, the “PEPCKc mRNA expression” value (PEPCK-c) is reported as 82, the “PEPCKc mRNA” value (PEPCK-c) is reported as 65 and the “GLUT4 mRNA” value (Glut4) is reported as 104 percentage of untreated control (UTC). The “PPAR gamma mRNA” value (PPARγ) was 93 percentage of untreated control (UTC), the “HSL mRNA” value (HSL) was 94 percentage of untreated control (UTC) and the “aP2 mRNA” value (aP2) was 95 percentage of untreated control (UTC).

With “327952 (antisense e[5mC]*eT*eA*e[5mC]*eG*e[5mC]*eG*eT*eA*eT*eT*e[5mC]*eT*eT*eA*eA*eG*e[5mC]*eA*eA*eT*eA) [compound 327952]” the “PEPCKc mRNA expression” value (PEPCK-c) was 85, the “PEPCKc mRNA” value (PEPCK-c) was 70 and the “GLUT4 mRNA” value (Glut4) was 61 percentage of untreated control (UTC). For the same substance, the “PPAR gamma mRNA” value (PPARγ) was 84 percentage of untreated control (UTC), the “HSL mRNA” value (HSL) was 64 percentage of untreated control (UTC) and the “aP2 mRNA” value (aP2) was 56 percentage of untreated control (UTC).

In the case of “327957 (antisense e[5mC]*eA*e[5mC]*eA*eA*eG*eT*eT*e[5mC]*eG*eG*eA*eT*e[5mC]*eT*eA*e[5mC]*eG*eG*eG*eT*eT) [compound 327957]”, the “PEPCKc mRNA expression” value (PEPCK-c) is reported as 88, the “PEPCKc mRNA” value (PEPCK-c) is reported as 59 and the “GLUT4 mRNA” value (Glut4) is reported as 11 percentage of untreated control (UTC). The “PPAR gamma mRNA” value (PPARγ) was 68 percentage of untreated control (UTC), the “HSL mRNA” value (HSL) was 15 percentage of untreated control (UTC) and the “aP2 mRNA” value (aP2) was 23 percentage of untreated control (UTC).

For “327958 (antisense e[5mC]*e[5mC]*eG*eG*e[5mC]*eT*eG*e[5mC]*eA*eA*e[5mC]*eA*e[5mC]*eA*eA*eG*eA*e[5mC]*eA*e[5mC]*eG*eA) [compound 327958]”, the “PEPCKc mRNA expression” value (PEPCK-c) was 106, the “PEPCKc mRNA” value (PEPCK-c) was 73 and the “GLUT4 mRNA” value (Glut4) was 5 percentage of untreated control (UTC). For the same substance, the “PPAR gamma mRNA” value (PPARγ) was 55 percentage of untreated control (UTC), the “HSL mRNA” value (HSL) was 5 percentage of untreated control (UTC) and the “aP2 mRNA” value (aP2) was 10 percentage of untreated control (UTC).

In the case of “327959 (antisense e[5mC]*eA*eG*e[5mC]*e[5mC]*eG*e[5mC]*eT*eG*eT*e[5mC]*eA*e[5mC]*eA*e[5mC]*eG*e[5mC]*eA*e[5mC]*eA*eG) [compound 327959]”, the “PEPCKc mRNA expression” value (PEPCK-c) is reported as 156, the “PEPCKc mRNA” value (PEPCK-c) is reported as 139 and the “GLUT4 mRNA” value (Glut4) is reported as 152 percentage of untreated control (UTC). For the same substance, the “PPAR gamma mRNA” value (PPARγ) was 65 percentage of untreated control (UTC), the “HSL mRNA” value (HSL) was 11 percentage of untreated control (UTC) and the “aP2 mRNA” value (aP2) was 24 percentage of untreated control (UTC).

For “327961 (antisense eG*eG*eG*eG*eT*eA*eT*eT*eT*eG*eA*e[5mC]*eA*eA*eA*e[5mC]*eT*eG*eA*e[5mC]*eA) [compound 327961]”, the “PEPCKc mRNA expression” value (PEPCK-c) was 126, the “PEPCKc mRNA” value (PEPCK-c) was 98 and the “GLUT4 mRNA” value (Glut4) was 101 percentage of untreated control (UTC). The “PPAR gamma mRNA” value (PPARγ) was 95 percentage of untreated control (UTC), the “HSL mRNA” value (HSL) was 88 percentage of untreated control (UTC) and the “aP2 mRNA” value (aP2) was 91 percentage of untreated control (UTC).

In the case of “327963 (antisense eA*eA*e[5mC]*e[5mC]*eT*eA*eT*e[5mC]*e[5mC]*eT*eG*eA*eA*eT*eT*eA*e[5mC]*eT*eT*eG*eA*eA) [compound 327963]”, the “PEPCKc mRNA expression” value (PEPCK-c) is reported as 94, the “PEPCKc mRNA” value (PEPCK-c) is reported as 92 and the “GLUT4 mRNA” value (Glut4) is reported as 91 percentage of untreated control (UTC). The “PPAR gamma mRNA” value (PPARγ) was 91 percentage of untreated control (UTC), the “HSL mRNA” value (HSL) was 89 percentage of untreated control (UTC) and the “aP2 mRNA” value (aP2) was 75 percentage of untreated control (UTC).

“327964 (antisense e[5mC]*e[5mC]*eA*eA*eG*eT*eT*e[5mC]*eT*eG*eT*e[5mC]*eA*eT*eG*e[5mC]*eA*e[5mC]*eT*eG*eA) [compound 327964]” was tested, and the “PEPCKc mRNA expression” value (PEPCK-c) was 122, the “PEPCKc mRNA” value (PEPCK-c) was 74 and the “GLUT4 mRNA” value (Glut4) was 114 percentage of untreated control (UTC). For the same substance, the “PPAR gamma mRNA” value (PPARγ) was 93 percentage of untreated control (UTC), the “HSL mRNA” value (HSL) was 102 percentage of untreated control (UTC) and the “aP2 mRNA” value (aP2) was 96 percentage of untreated control (UTC).

“327965 (antisense eA*eT*e[5mC]*eA*e[5mC]*eA*eT*eA*eG*eG*eA*eA*eT*eA*eA*eA*eA*eA*eG*e[5mC]*e[5mC]*eA*eT*eA) [compound 327965]” was tested, and the “PEPCKc mRNA expression” value (PEPCK-c) was 64, the “PEPCKc mRNA” value (PEPCK-c) was 63 and the “GLUT4 mRNA” value (Glut4) was 88 percentage of untreated control (UTC). The “PPAR gamma mRNA” value (PPARγ) was 91 percentage of untreated control (UTC), the “HSL mRNA” value (HSL) was 84 percentage of untreated control (UTC) and the “aP2 mRNA” value (aP2) was 67 percentage of untreated control (UTC).

“327971 (antisense eG*eG*eA*eA*eA*eT*e[5mC]*e[5mC]*e[5mC]*eT*eG*eG*e[5mC]*eA*eA*eT*eG*eT*eG*eA*eT) [compound 327971]” was tested, and the “GLUT4 mRNA” value (Glut4) was 60 percentage of untreated control (UTC), the “PPAR gamma mRNA” value (PPARγ) was 69 percentage of untreated control (UTC) and the “HSL mRNA” value (HSL) was 38 percentage of untreated control (UTC). For the same substance, the “aP2 mRNA” value (aP2) was 49 percentage of untreated control (UTC).

“CTAGTGGTCCTAAACATTTCAC (chemistry not given here) [ISIS 327878, uniform 2′-MOE PS; targets mir-203]” was tested, and the “reduction of PEPCK-c mRNA expression” value (PEPCK-c; HepG2, 1 nM insulin, 100 nM) was 71% and the “decrease in PEPCK-c mRNA” value (PEPCK-c; HepG2, basal (no insulin), 100 nM) was 55%.
